Experimental data: patent US20240002416A1 (Rheinische-Friedrich-Wilhelms-Universität Bonn, priority 2020, published 2024)

Key:
[1] = target: T1, human MRGPRX4-83L (Homo sapiens, UniProt Q96LA9); assay: β-arrestin assay (CHO β-arrestin ARMS1-ProLink 2 human MRGPRX4 83L); type: cell-based; conditions: Table 1; for Emax: efficacy based on maximal effect of 100 nM B-16 (set as 100%), read-out: Emax; for EC50: β-arrestin recruitment, CHO cells, MRGPRX4-83L, means of 3-4 experiments, read-out: EC50 ± SEM; for IC50: inhibition of the effect of 2.6 μM B-16
T1 construct: host or cells: CHO β-arrestin cells
T1 sequence (Q96LA9 whole entry): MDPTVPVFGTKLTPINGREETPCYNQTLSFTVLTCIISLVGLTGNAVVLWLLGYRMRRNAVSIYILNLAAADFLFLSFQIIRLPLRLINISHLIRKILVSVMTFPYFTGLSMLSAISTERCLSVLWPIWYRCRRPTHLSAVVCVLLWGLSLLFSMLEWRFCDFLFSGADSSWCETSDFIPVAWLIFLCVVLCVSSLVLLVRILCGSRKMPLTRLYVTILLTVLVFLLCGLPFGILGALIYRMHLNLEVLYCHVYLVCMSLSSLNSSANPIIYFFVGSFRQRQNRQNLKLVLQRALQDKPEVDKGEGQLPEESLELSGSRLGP
Method in brief: (§1)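 β-Galactosidase enzyme-fragment complementation in engineered CHO lines expressing human MRGPRX4 reported β-arrestin recruitment. Intracellular calcium was followed in astrocytes engineered with the 83L variant or in LN229 cells endogenously carrying the 83S variant.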

[2] = target: T2, MRGPRX4-83S (Homo sapiens, UniProt Q96LA9, L83S); assay: β-arrestin assay (CHO β-arrestin human MRGPRX4-83S); type: cell-based; design: host or cells: CHO β-arrestin cells; conditions: for Emax: efficacy based on 100 nM B-16 (set as 100%), read-out: Emax; for EC50: β-arrestin recruitment, CHO cells, MRGPRX4-83S, read-out: EC50 ± SEM
T2 sequence (Q96LA9 whole entry L83S): as the sequence (Q96LA9 whole entry) above, with L83S counted along it
Method in brief: as §1

[3] = target: T1, human MRGPRX4-83L; assay: Calcium assay (human MRGPRX4 83L), recombinant astrocytes; type: cell-based; conditions: for EC50 / Emax: Table 1; for EC50: calcium mobilization, MRGPRX4-83L, read-out: EC50 ± SEM; for Emax: efficacy based on maximal effect of 1 μM B-16 (set as 100%), read-out: Emax
Method in brief: as §1

[4] = target: T2, MRGPRX4-83S; assay: Calcium assay (human glioblastoma LN229 cells expressing the MRGPRX4-83S); type: cell-based; design: LN229 glioblastoma cells natively expressing the MRGPRX4-83S; endogenous in cells; host or cells: LN229 human glioblastoma cells; conditions: for Emax: LN-229, efficacy based on 30 μM H-1 (set as 100%), read-out: Emax; for EC50: calcium mobilization, LN229 cells, MRGPRX4-83S, read-out: EC50 ± SEM
Method: For β-arrestin recruitment assays, recombinant Chinese hamster ovary (CHO) cells expressing the human MRGPRX4 were used (DiscoverX/Eurofins) which allowed to measure β-galactosidase complementation upon β-arrestin recruitment. For calcium mobilization assays, recombinant astrocytes expressing MRGPX4-83L, or LN229 glioblastoma cells natively expressing the MRGPRX4-83S, were used.
The assays were performed as previously described for other rhodopsin-like GPCRs (Müller, C.E.; 8-Benzamidochromen-4-one-2-carboxylic acids: potent and selective agonists for the orphan G protein-coupled receptor GPR35. J. Med. Chem. 2013, 56:5182-97; Müller, C.E. Molecular Recognition of Agonists and Antagonists by the Nucleotide-Activated G Protein-Coupled P2Y2 Receptor. J. Med. Chem. 2017, 60:8425-8440).

Row | Structure (SMILES) | melting point [°C] | Emax [1] [%] | EC50 [1] [nM] | Emax ([2]; Table 2) [%] | EC50 ([2]; Table 2) [nM] | EC50 [3] [nM] | Emax [3] [%] | Emax ([4]; Table 2) [%] | EC50 ([4]; Table 2) [nM] | Emax ([2]; Table 3) [%] | EC50 ([2]; Table 3) [nM] | Emax ([4]; Table 3) [%] | EC50 ([4]; Table 3) [nM] | IC50 [4] [nM] | IC50 [1] [nM] | IC50 [3] [nM]
1 | C#CCn1c(=O)c2[nH]c(CCc3cccc(F)c3)nc2n(CCCCP(=O)(O)O)c1=O [B-3, (4-(8-(3-Fluorophenethyl)-2,6-dioxo-1-(prop-2-yn-1-yl)-1,2,6,7-tetrahydro-3H-purin-3-yl)butyl)phosphonic acid] | 154 to 156 | 89 | 7940 ± 1450 | 93 | 33.9 ± 5.1 | 601 ± 103 | 110 | 118 | 63.1 ± 18.6 | – | – | – | – | – | – | –
2 | C#CCn1c(=O)c2[nH]c(CCc3cccc(Br)c3)nc2n(CCCCP(=O)(O)O)c1=O [B-4, (4-(8-(3-Bromophenethyl)-2,6-dioxo-1-(prop-2-yn-1-yl)-1,2,6,7-tetrahydro-3H-purin-3-yl)butyl)phosphonic acid] | 240 to 242 | 103 | 2140 ± 850 | 110 | 3.24 ± 1.16 | 80.8 ± 16.8 | 100 | 109 | 4.69 ± 1.58 | – | – | – | – | – | – | –
3 | C#CCn1c(=O)c2[nH]c(CCc3cccc(C)c3)nc2n(CCCCP(=O)(O)O)c1=O [B-5, (4-(8-(3-Methylphenethyl)-2,6-dioxo-1-(prop-2-yn-1-yl)-1,2,6,7-tetrahydro-3H-purin-3-yl)butyl)phosphonic acid] | 244 to 246 | 99 | 15200 ± 520 | 103 | 34.3 ± 7.6 | 492 ± 38 | 91 | 96 | 18.1 ± 1.5 | – | – | – | – | – | – | –
4 | C#CCn1c(=O)c2c(nc(CCc3ccccc3C)n2CC)n(CCCCP(=O)(O)O)c1=O [B-32, (4-(7-Ethyl-8-(2-methylphenethyl)-2,6-dioxo-1-(prop-2-yn-1-yl)-1,2,6,7-tetrahydro-3H-purin-3-yl)butyl)phosphonic acid] | 152 to 154 | – | – | – | – | – | – | – | – | 97 | 0.0424 ± 0.015 | 111 | 0.441 ± 0.157 | – | – | –
5 | C#CCn1c(=O)c2c(nc(CCc3ccc(I)cc3)n2CC2CCCC2)n(CCCCP(=O)(O)O)c1=O [B-39, (4-(7-(cyclopentylmethyl)-8-(4-iodophenethyl)-2,6-dioxo-1-(prop-2-yn-1-yl)-1,2,6,7-tetrahydro-3H-purin-3-yl)butyl)phosphonic acid] | 119 to 121 | – | – | – | – | – | – | – | – | 76 | 0.773 ± 0.106 | 23 | 143 ± 66 | 16.1 ± 8.4 | – | –
6 | C#CCn1c(=O)c2c(nc(CCc3ccc(C(F)(F)F)cc3)n2CC2CCCC2)n(CCCCP(=O)(O)O)c1=O [B-40, (4-(7-(cyclopentylmethyl)-2,6-dioxo-1-(prop-2-yn-1-yl)-8-(4-(trifluoromethyl)phenethyl)-1,2,6,7-tetrahydro-3H-purin-3-yl)butyl)phosphonic acid] | 101 to 102 | – | – | – | – | – | – | – | – | 77 | 18.3 ± 6.1 | 8 | 23.7 ± 0.7 | 13 ± 1.4 | – | –
7 | C#CCn1c(=O)c2c(nc(CCc3ccc(OC)cc3)n2CC2CCCC2)n(CCCCP(=O)(O)O)c1=O [B-41, (4-(7-(cyclopentylmethyl)-8-(4-methoxyphenethyl)-2,6-dioxo-1-(prop-2-yn-1-yl)-1,2,6,7-tetra-hydro-3H-purin-3-yl)butyl)phosphonic acid] | 111 to 113 | – | – | – | – | – | – | – | – | 96 | 3.67 ± 1.21 | 57 | 51.4 ± 8.5 | – | – | –
8 | C#CCn1c(=O)c2c(nc(CCc3ccc(C(C)C)cc3)n2CC2CCCC2)n(CCCCP(=O)(O)O)c1=O [B-43, (4-(7-(cyclopentylmethyl)-8-(4-isopropylphenethyl)-2,6-dioxo-1-(prop-2-yn-1-yl)-1,2,6,7-tetra-hydro-3H-purin-3-yl)butyl)phosphonic acid] | 125 to 127 | – | – | – | – | – | – | – | – | 53 | 10.7 ± 7.1 | – | > 10000 | – | – | –
9 | C#CCn1c(=O)c2c(nc(CCc3ccc(-c4ccccc4)cc3)n2CC2CCCC2)n(CCCCP(=O)(O)O)c1=O [B-44, (4-(8-(2-([1,1′-biphenyl]-4-yl)ethyl)-7-(cyclopentylmethyl)-2,6-dioxo-1-(prop-2-yn-1-yl)-1,2,6,7-tetrahydro-3H-purin-3-yl)butyl)phosphonic acid] | 156 to 158 | – | – | – | – | – | – | – | – | 43 | 2.12 ± 0.85 | – | > 10000 | 0.0873 ± 0.012 | – | –

More lines, now with the values ahead:

Row | melting point [°C] | Emax [1] [%] | EC50 [1] [nM] | Emax ([2]; Table 2) [%] | EC50 ([2]; Table 2) [nM] | EC50 [3] [nM] | Emax [3] [%] | Emax ([4]; Table 2) [%] | EC50 ([4]; Table 2) [nM] | Emax ([2]; Table 3) [%] | EC50 ([2]; Table 3) [nM] | Emax ([4]; Table 3) [%] | EC50 ([4]; Table 3) [nM] | IC50 [4] [nM] | IC50 [1] [nM] | IC50 [3] [nM] | Structure (SMILES)
10 | 88 to 90 | – | – | – | – | – | – | – | – | 102 | 0.0705 ± 0.0198 | 154 | 0.984 ± 0.054 | – | – | – | C#CCn1c(=O)c2c(nc(CCc3ccccc3C)n2C(C)C)n(CCCCP(=O)(O)O)c1=O [B-48, (4-(7-Isopropyl-8-(2-methylphenethyl)-2,6-dioxo-1-(prop-2-yn-1-yl)-1,2,6,7-tetrahydro-3H-purin-3-yl)butyl)phosphonic acid]
11 | 105 to 107 | – | – | – | – | – | – | – | – | 103 | 0.0751 ± 0.0229 | 119 | 0.491 ± 0.192 | – | – | – | C#CCn1c(=O)c2c(nc(CCc3ccccc3Br)n2C(C)CC)n(CCCCP(=O)(O)O)c1=O (centres unmarked) [B-49, (4-(8-(2-bromophenethyl)-7-(sec-butyl)-2,6-dioxo-1-(prop-2-yn-1-yl)-1,2,6,7-tetrahydro-3H-purin-3-yl)butyl)phosphonic acid]
12 | 179 to 181 | – | > 10000 | – | > 10000 | > 10000 | – | – | – | – | – | – | – | – | > 10000 | > 10000 | CCn1c(=O)c2[nH]c(CCc3cccc(OC)c3)nc2n(CCCCS(=O)(=O)O)c1=O [E-2, 4-(1-Ethyl-8-(3-methoxyphenethyl)-2,6-dioxo-1,2,6,7-tetrahydro-3H-purin-3-yl)butane-1-sulfonic acid]
13 | 216 to 219 | – | > 10000 | – | > 10000 | > 10000 | – | – | – | – | – | – | – | – | > 10000 | > 10000 | C#CCn1c(=O)c2[nH]c(CCc3ccccc3Br)nc2n(CCCCS(N)(=O)=O)c1=O [F-1, 4-(8-(2-Bromophenethyl)-2,6-dioxo-1-(prop-2-yn-1-yl)-1,2,6,7-tetrahydro-3H-purin-3-yl)butane-1-sulfonamide]
14 | 196 to 198 | – | > 10000 | – | > 10000 | > 10000 | – | – | – | – | – | – | – | – | > 10000 | > 10000 | C#CCn1c(=O)c2[nH]c(CCc3ccccc3OC)nc2n(CCCCC(=O)O)c1=O [G-1, 5-(8-(2-Methoxyphenethyl)-2,6-dioxo-1-(prop-2-yn-1-yl)-1,2,6,7-tetrahydro-3H-purin-3-yl)pentanoic acid]
15 | 210 to 212 | – | > 10000 | – | > 10000 | > 10000 | – | – | – | – | – | – | – | – | > 10000 | > 10000 | O=C(O)CCCCn1c(=O)n(CC2CCC2)c(=O)c2[nH]c(CCc3cccc(C(F)(F)F)c3)nc21 [G-2, 5-(1-(Cyclobutylmethyl)-2,6-dioxo-8-(3-(trifluoromethyl)phenethyl)-1,2,6,7-tetrahydro-3H-purin-3-yl)pentanoic acid]
16 | 192 to 194 | – | – | – | – | – | – | – | – | – | > 100000 | – | > 10000 | – | – | – | C#CCn1c(=O)c2[nH]c(CCc3ccccc3Br)nc2n(CCCCCC(=O)O)c1=O [G-3, 6-(8-(2-Bromophenethyl)-2,6-dioxo-1-(prop-2-yn-1-yl)-1,2,6,7-tetrahydro-3H-purin-3-yl) hexanoic acid]
